What was measured:
LIMK2 = LIMK2 (Homo sapiens, UniProt P53671); assay: NanoBRET tracer displacement, HEK293T; assay type: cell-based
PAK2 = PAK2 (Homo sapiens, UniProt Q13177); details: 1 µM; inhibitor
CK1g2 = CK1g2 (Homo sapiens, UniProt P78368); details: 1 µM; inhibitor
TYRO3 = TYRO3 (Homo sapiens, UniProt Q06418); details: 1 µM; inhibitor
RPS6KA5 = RPS6KA5 (Homo sapiens, UniProt O75582); details: 1 µM; inhibitor
EEF2K = EEF2K (Homo sapiens, UniProt O00418); details: 1 µM; inhibitor
ACVR2A = ACVR2A (Homo sapiens, UniProt P27037); details: 1 µM; inhibitor
EPHB1 = EPHB1 (Homo sapiens, UniProt P54762); details: 1 µM; inhibitor
PKMzeta = PKMzeta (Homo sapiens, UniProt Q05513); details: 1 µM; inhibitor
EIF2AK3 = EIF2AK3 (Homo sapiens, UniProt Q9NZJ5); details: 1 µM; inhibitor
PIM3 = PIM3 (Homo sapiens, UniProt Q86V86); details: 1 µM; inhibitor
MEKK2 = MEKK2 (Homo sapiens, UniProt Q9Y2U5); details: 1 µM; inhibitor
HIPK1 = HIPK1 (Homo sapiens, UniProt Q86Z02); details: 1 µM; inhibitor
MAPKAPK3 = MAPKAPK3 (Homo sapiens, UniProt Q16644); details: 1 µM; inhibitor
BMPR1B = BMPR1B (Homo sapiens, UniProt O00238); details: 1 µM; inhibitor
EPHB3 = EPHB3 (Homo sapiens, UniProt P54753); details: 1 µM; inhibitor
FGFR4 = FGFR4 (Homo sapiens, UniProt P22455); details: 1 µM; inhibitor
CK1e = CK1e (Homo sapiens, UniProt P49674); details: 1 µM; inhibitor
JNK2 = JNK2 (Homo sapiens, UniProt P45984); details: 1 µM; inhibitor
AKT1 = AKT1 (Homo sapiens, UniProt P31749); details: 1 µM; inhibitor
SRMS = SRMS (Homo sapiens, UniProt Q9H3Y6); details: 1 µM; inhibitor
INSR = INSR (Homo sapiens, UniProt P06213); details: 1 µM; inhibitor
TRKC = TRKC (Homo sapiens, UniProt Q16288); details: 1 µM; inhibitor
ALK = ALK (Homo sapiens, UniProt Q9UM73); details: 1 µM; inhibitor
CAMK2D = CAMK2D (Homo sapiens, UniProt Q13557); details: 1 µM; inhibitor
AKT2 = AKT2 (Homo sapiens, UniProt P31751); details: 1 µM; inhibitor
MERTK = MERTK (Homo sapiens, UniProt Q12866); details: 1 µM; inhibitor
RPS6KA4 = RPS6KA4 (Homo sapiens, UniProt O75676); details: 1 µM; inhibitor
SLK = SLK (Homo sapiens, UniProt Q9H2G2); details: 1 µM; inhibitor
IKKb = IKKb (Homo sapiens, UniProt O14920); details: 1 µM; inhibitor
[1] = target: MST4 (full-length, NanoLuc fusion) (Homo sapiens, UniProt Q9P289); assay: NanoBRET tracer displacement, HEK293T; assay type: cell-based

Sequence of EEF2K (O00418 whole entry): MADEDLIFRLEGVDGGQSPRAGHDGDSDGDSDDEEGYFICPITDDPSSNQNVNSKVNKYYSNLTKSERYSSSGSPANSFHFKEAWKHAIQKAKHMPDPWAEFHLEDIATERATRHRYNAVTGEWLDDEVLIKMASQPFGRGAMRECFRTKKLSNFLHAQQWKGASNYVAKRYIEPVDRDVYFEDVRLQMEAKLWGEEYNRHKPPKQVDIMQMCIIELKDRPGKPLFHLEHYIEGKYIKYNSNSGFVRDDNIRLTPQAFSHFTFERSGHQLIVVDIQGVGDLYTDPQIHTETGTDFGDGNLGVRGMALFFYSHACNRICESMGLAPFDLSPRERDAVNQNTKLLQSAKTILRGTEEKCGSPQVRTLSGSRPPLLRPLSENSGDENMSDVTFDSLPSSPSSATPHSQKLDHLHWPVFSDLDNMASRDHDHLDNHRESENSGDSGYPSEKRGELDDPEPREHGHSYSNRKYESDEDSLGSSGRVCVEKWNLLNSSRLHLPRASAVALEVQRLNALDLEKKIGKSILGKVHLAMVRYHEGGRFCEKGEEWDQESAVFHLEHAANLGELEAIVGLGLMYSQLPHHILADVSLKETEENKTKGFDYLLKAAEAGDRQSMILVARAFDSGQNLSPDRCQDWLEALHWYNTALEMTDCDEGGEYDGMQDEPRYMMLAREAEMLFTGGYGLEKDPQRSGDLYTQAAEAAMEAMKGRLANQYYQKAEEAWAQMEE
Sequence of AKT2 (P31751 whole entry): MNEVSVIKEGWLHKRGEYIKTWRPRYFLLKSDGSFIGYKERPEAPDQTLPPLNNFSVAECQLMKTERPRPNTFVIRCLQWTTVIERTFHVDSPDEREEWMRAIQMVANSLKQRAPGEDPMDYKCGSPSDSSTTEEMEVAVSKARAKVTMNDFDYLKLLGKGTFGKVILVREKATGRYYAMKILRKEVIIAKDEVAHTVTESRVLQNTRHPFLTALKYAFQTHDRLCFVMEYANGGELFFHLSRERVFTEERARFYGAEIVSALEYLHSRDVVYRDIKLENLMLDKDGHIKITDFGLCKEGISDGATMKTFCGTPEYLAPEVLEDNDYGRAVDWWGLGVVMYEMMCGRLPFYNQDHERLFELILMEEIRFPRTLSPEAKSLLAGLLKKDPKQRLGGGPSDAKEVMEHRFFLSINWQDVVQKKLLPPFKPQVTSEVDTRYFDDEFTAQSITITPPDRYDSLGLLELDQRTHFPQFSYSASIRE
Sequence of BMPR1B (O00238 whole entry): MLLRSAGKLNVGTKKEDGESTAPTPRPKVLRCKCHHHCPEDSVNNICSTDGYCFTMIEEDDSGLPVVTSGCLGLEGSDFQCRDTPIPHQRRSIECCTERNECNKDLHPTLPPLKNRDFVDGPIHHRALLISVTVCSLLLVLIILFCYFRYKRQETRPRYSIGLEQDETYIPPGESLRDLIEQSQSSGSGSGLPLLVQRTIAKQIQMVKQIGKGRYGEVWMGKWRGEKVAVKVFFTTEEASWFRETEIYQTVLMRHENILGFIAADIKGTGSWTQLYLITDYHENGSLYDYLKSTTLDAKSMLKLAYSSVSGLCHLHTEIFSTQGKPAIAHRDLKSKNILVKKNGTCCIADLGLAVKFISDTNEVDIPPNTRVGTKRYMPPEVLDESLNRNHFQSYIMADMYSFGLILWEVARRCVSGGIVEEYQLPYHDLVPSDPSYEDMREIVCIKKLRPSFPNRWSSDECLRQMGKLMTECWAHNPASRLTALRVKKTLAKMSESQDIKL
Sequence of MEKK2 (Q9Y2U5 whole entry): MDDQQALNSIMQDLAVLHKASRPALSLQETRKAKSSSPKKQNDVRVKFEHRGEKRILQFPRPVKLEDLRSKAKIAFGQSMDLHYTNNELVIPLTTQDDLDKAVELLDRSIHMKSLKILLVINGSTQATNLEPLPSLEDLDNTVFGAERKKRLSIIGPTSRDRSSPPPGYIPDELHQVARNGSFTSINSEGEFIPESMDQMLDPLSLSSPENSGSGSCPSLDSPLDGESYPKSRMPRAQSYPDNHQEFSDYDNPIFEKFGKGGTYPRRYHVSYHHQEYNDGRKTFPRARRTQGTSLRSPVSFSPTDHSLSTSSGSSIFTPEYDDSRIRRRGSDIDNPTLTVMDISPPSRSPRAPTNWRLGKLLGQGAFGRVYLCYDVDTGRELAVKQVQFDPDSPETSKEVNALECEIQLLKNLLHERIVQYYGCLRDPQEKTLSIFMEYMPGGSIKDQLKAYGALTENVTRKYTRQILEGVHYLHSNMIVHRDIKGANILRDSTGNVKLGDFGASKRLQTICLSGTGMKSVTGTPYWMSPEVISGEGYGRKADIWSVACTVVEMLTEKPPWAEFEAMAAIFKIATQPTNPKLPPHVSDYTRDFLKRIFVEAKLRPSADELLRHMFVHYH
Sequence of TRKC (Q16288 whole entry): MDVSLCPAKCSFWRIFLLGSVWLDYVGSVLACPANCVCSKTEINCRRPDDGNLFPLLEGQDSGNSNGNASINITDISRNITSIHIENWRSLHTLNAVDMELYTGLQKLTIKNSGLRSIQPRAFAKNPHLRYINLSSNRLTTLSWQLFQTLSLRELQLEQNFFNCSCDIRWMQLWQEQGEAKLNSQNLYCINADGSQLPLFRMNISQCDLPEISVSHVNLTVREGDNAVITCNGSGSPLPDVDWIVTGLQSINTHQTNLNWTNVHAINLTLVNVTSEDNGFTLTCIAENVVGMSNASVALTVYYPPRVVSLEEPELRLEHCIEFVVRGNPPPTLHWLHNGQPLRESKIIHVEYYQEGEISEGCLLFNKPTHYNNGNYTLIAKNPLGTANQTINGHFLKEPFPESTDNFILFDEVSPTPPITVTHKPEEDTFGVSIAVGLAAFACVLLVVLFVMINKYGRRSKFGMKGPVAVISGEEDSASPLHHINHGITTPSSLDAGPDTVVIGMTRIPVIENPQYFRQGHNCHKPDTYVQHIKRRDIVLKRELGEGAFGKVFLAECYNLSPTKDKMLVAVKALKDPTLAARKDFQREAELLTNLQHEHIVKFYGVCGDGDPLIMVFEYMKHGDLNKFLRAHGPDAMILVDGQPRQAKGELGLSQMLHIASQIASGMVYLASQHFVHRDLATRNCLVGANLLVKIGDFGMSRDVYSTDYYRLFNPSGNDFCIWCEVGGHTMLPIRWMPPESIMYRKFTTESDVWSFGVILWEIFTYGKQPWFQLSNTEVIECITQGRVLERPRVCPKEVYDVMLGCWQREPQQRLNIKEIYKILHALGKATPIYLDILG
Sequence of INSR (P06213 whole entry): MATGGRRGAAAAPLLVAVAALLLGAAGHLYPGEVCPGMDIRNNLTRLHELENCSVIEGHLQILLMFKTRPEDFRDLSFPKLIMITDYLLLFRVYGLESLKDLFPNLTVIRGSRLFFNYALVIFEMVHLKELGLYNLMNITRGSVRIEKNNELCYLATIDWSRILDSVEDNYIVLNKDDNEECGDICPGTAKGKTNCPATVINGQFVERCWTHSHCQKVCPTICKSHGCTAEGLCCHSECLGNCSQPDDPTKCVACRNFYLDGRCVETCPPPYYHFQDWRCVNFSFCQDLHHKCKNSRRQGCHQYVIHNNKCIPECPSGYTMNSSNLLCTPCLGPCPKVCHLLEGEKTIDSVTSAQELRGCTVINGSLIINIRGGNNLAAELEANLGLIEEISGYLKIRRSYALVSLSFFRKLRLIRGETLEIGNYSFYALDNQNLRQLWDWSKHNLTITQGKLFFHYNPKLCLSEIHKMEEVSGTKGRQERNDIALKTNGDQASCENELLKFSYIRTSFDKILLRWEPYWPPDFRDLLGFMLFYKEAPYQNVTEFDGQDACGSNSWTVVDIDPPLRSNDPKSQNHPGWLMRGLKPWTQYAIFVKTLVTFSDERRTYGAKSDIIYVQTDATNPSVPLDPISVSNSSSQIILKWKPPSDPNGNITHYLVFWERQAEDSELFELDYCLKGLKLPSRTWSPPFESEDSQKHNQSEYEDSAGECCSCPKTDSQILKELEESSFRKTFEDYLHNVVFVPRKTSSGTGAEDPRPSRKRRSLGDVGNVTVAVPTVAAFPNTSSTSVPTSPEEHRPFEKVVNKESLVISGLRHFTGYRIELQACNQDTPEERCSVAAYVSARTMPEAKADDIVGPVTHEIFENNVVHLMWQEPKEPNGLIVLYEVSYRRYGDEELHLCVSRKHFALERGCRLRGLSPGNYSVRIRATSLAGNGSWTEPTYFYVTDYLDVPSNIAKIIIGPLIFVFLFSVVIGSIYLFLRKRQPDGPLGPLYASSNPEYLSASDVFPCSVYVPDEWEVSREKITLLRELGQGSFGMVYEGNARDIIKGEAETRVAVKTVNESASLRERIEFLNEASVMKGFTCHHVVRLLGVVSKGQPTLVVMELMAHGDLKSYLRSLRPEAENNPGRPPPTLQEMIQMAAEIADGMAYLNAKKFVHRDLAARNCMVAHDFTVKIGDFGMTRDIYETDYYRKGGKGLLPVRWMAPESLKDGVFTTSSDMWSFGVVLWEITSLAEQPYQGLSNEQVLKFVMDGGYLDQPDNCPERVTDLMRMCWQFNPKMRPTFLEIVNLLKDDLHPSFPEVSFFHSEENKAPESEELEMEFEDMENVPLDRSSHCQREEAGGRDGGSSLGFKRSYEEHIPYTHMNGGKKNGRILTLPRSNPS
Sequence of JNK2 (P45984 whole entry): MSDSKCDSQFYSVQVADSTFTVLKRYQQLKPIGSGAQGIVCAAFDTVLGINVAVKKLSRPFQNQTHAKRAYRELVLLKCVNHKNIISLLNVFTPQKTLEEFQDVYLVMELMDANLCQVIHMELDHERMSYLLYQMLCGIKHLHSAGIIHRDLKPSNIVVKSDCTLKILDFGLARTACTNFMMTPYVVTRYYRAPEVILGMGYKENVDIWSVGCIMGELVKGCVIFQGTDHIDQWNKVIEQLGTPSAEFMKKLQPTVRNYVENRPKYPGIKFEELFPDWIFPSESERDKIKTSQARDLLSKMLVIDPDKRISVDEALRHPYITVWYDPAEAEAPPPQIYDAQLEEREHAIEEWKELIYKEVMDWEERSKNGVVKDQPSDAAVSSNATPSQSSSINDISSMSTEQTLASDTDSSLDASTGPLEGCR

O=C1NCCCCCNc2nc(c3ccccc3n2)Nc2cc1[nH]n2 [21c, (Z)-3^1H-2,5,11-triaza-1(4,2)-quinazolina-3(3,5)-pyrazolacycloundecaphan-4-one]
EC50 (LIMK2): 1400 nM
21c Remaining activity, percent of control [%] (PAK2): 113.2%
21c Remaining activity, percent of control [%] (CK1g2): 109.6%
21c Remaining activity, percent of control [%] (TYRO3): 77.8%
21c Remaining activity, percent of control [%] (RPS6KA5): 108.9%
21c Remaining activity, percent of control [%] (EEF2K): 114.2%
21c Remaining activity, percent of control [%] (ACVR2A): 95.3%
21c Remaining activity, percent of control [%] (EPHB1): 77.1%
21c Remaining activity, percent of control [%] (PKMzeta): 96.2%
21c Remaining activity, percent of control [%] (EIF2AK3): 87.8%
21c Remaining activity, percent of control [%] (PIM3): 88.9%
21c Remaining activity, percent of control [%] (MEKK2): 103.5%
21c Remaining activity, percent of control [%] (HIPK1): 97.2%
21c Remaining activity, percent of control [%] (MAPKAPK3): 95.7%
21c Remaining activity, percent of control [%] (BMPR1B): 80.1%
21c Remaining activity, percent of control [%] (EPHB3): 105.4%
21c Remaining activity, percent of control [%] (FGFR4): 96.9%
21c Remaining activity, percent of control [%] (CK1e): 103.1%
21c Remaining activity, percent of control [%] (JNK2): 84.0%
21c Remaining activity, percent of control [%] (AKT1): 92.1%
21c Remaining activity, percent of control [%] (SRMS): 81.5%
21c Remaining activity, percent of control [%] (INSR): 98.0%
21c Remaining activity, percent of control [%] (TRKC): 102.0%
21c Remaining activity, percent of control [%] (ALK): 100.1%
21c Remaining activity, percent of control [%] (CAMK2D): 95.0%
21c Remaining activity, percent of control [%] (AKT2): 90.3%
21c Remaining activity, percent of control [%] (MERTK): 44.2%
21c Remaining activity, percent of control [%] (RPS6KA4): 92.5%
21c Remaining activity, percent of control [%] (SLK): 61.9%
21c Remaining activity, percent of control [%] (IKKb): 94.0%
EC50 [1]: 1400 nM

— doi:10.1101/2023.10.20.563248v1 (biorxiv, 2023)
